In brackets after ≈: the same amount, converted by molar mass. Like-named read-outs stand apart in the source and are kept apart here.
Tests used:
[1] = tested on: Lactobacillus casei ATCC 334; test: MIC against human normal gut microbiota; assay type: cell-based; settings: Lacticaseibacillus casei, ATCC334; MRS broth, 5% CO2, 48 hours; read-out: MIC
Outline: (§1)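 Anaerobic gut strains in hemin/vitamin K/L-cysteine-supplemented BHI, Lactobacillus in MRS with 5% CO2. All at ~5×10^5 CFU/ml and 37° C, with 48 h exposure to compound dilution series.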

[2] = tested on: Bifidobacterium breve—JCP7499 HIM 1120; test: MIC against human normal gut microbiota; assay type: cell-based; settings: Bifidobacterium; BHIS broth, anaerobic, 48 hours; read-out: MIC
Outline: as §1

[3] = tested on: Bacteroides dorei—CL02T12C06 HM-719; test: MIC against human normal gut microbiota; assay type: cell-based; settings: Bacteroides; BHIS broth, anaerobic, 48 hours; read-out: MIC
Outline: as §1

[4] = tested on: Bifidobacterium longum subsp. Longum—44B HM 845; test: MIC against human normal gut microbiota; assay type: cell-based; settings: Bifidobacterium longum; BHIS broth, anaerobic, 48 hours; read-out: MIC
Outline: as §1

[5] = tested on: Bacteroides fragilis—CL07T00C01 HIM-709; test: MIC against human normal gut microbiota; assay type: cell-based; settings: Bacteroides; BHIS broth, anaerobic, 48 hours; read-out: MIC
Outline: as §1

[6] = tested on: Mutant-7 of Enterococcus fecalis NR 31975; test: microbe, parasite or virus in culture; assay type: cell-based; settings: Enterococcus
[7] = tested on: Staphylococcus epidermidis NRS 101; test: MIC against Staphylococci, broth microdilution; assay type: cell-based; settings: Staphylococcus epidermidis, NRS101; TSB; read-out: MIC
Outline: (§2)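 CLSI broth microdilution in tryptone soy broth, inoculum about 5×10^5 CFU/mL from overnight agar cultures at 0.5 McFarland, with serially diluted compound. Plates were incubated aerobically at 37° C for 18-20 h. MIC was the lowest concentration with no visible growth.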

[8] = tested on: MRSA NRS 384 (MRSA USA300); test: MIC against Staphylococci, broth microdilution; assay type: cell-based, Staphylococcus aureus; settings: Staphylococcus aureus; TSB; read-out: MIC
Outline: as §2

[9] = tested on: Mutant-13 of Enterococcus fecalis NR 31975; test: microbe, parasite or virus in culture; assay type: cell-based; settings: Enterococcus
[10] = tested on: Mutant-9 of Enterococcus fecalis NR 31975; test: microbe, parasite or virus in culture; assay type: cell-based; settings: Enterococcus
[11] = tested on: Mutant-3 of Enterococcus fecalis NR 31975; test: microbe, parasite or virus in culture; assay type: cell-based; settings: Enterococcus
[12] = tested on: Mutant-12 of Enterococcus fecalis NR 31975; test: microbe, parasite or virus in culture; assay type: cell-based; settings: Enterococcus
[13] = tested on: Mutant-5 of Enterococcus fecalis NR 31975; test: microbe, parasite or virus in culture; assay type: cell-based; settings: Enterococcus
[14] = tested on: Mutant-2 of Enterococcus fecalis NR 31975; test: microbe, parasite or virus in culture; assay type: cell-based; settings: Enterococcus
[15] = tested on: Enterococcus faecium Patient #2-1-NR-31909; test: MIC, broth microdilution in TSB; assay type: cell-based; settings: Enterococcus faecium, TSB
Outline: (§3)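 Strains were grown aerobically overnight on tryptone soya agar at 37° C, adjusted to 0.5 McFarland and diluted to about 5×10^5 CFU/mL. Compounds were serially diluted across the wells, and plates were incubated aerobically at 37° C for 18-20 hours.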

[16] = tested on: Enterococcus faecalis—S613 HM-334; test: MIC, broth microdilution in TSB; assay type: cell-based; settings: Enterococcus, TSB
Outline: as §3

[17] = tested on: Enterococcus fecalis Strain SF 24397 NR31970; test: MIC, broth microdilution in TSB; assay type: cell-based; settings: Enterococcus, TSB
Outline: as §3

[18] = tested on: Enterococcus faecium Patient #3-1 NR-31912; test: MIC, broth microdilution in TSB; assay type: cell-based; settings: Enterococcus faecium, TSB
Outline: as §3

[19] = tested on: Enterococcus fecalis Strain MMH594-NR31975; test: MIC, broth microdilution in TSB; assay type: cell-based; settings: Enterococcus, TSB
Outline: as §3

[20] = tested on: Enterococcus fecalis Strain SF24413 NR31971; test: MIC, broth microdilution in TSB; assay type: cell-based; settings: Enterococcus, TSB
Outline: as §3

[21] = tested on: Enterococcus fecalis Strain SF 28073-NR31972; test: MIC, broth microdilution in TSB; assay type: cell-based; settings: Enterococcus, TSB
Outline: as §3

[22] = tested on: Enterococcus faecium E417-HM-965; test: MIC, broth microdilution in TSB; assay type: cell-based; settings: Enterococcus faecium, E417HM965, TSB
Outline: as §3

[23] = tested on: Mutant-15 of Enterococcus fecalis NR 31975; test: microbe, parasite or virus in culture; assay type: cell-based; settings: Enterococcus
[24] = tested on: Mutant-11 of Enterococcus fecalis NR 31975; test: microbe, parasite or virus in culture; assay type: cell-based; settings: Enterococcus
[25] = tested on: Mutant-6 of Enterococcus fecalis NR 31975; test: microbe, parasite or virus in culture; assay type: cell-based; settings: Enterococcus

Structure (SMILES)	MIC [1] [µg/mL]	MIC [2] [µg/mL]	MIC [3] [µg/mL]	MIC [4] [µg/mL]	MIC [5] [µg/mL]	MIC [6] [µg/mL]	MIC [7] [µg/mL]	MIC [8] [µg/mL]	MIC [9] [µg/mL]	MIC [10] [µg/mL]	MIC [11] [µg/mL]	MIC [12] [µg/mL]	MIC [13] [µg/mL]	MIC [14] [µg/mL]	MIC ([16]; Table 1, read-out: MIC) [µg/mL]	MIC ([16]; Table 7, read-out: MIC in TSB) [µg/mL]	MIC ([17]; Table 1, read-out: MIC) [µg/mL]	MIC ([17]; Table 7, read-out: MIC in TSB) [µg/mL]	MIC ([19]; Table 1, read-out: MIC) [µg/mL]	MIC ([19]; Table 7, read-out: MIC in TSB) [µg/mL]	other results
CCc1ccc(C(=O)Nc2nnc(S(N)(=O)=O)s2)cc1 [CAI0017, 4-Ethyl-N-(5-sulfamoyl-1,3,4-thiadiazol-2-yl)benzamide]	> 64	> 64	> 64	> 64	> 64	8 (≈ 25.6 µM)	> 64	> 64	16 (≈ 51.2 µM)	16 (≈ 51.2 µM)	8 (≈ 25.6 µM)	16 (≈ 51.2 µM)	8 (≈ 25.6 µM)	8 (≈ 25.6 µM)	1 (≈ 3.2 µM)	1 (≈ 3.2 µM)	1 (≈ 3.2 µM)	1 (≈ 3.2 µM)	1 (≈ 3.2 µM)	1 (≈ 3.2 µM)	MIC ([15]; Table 1, read-out: MIC): 0.25 µg/mL (≈ 0.8 µM); MIC ([15]; Table 7, read-out: MIC in TSB): 0.25 µg/mL (≈ 0.8 µM); MIC ([18]; Table 1, read-out: MIC): 1 µg/mL (≈ 3.2 µM); MIC ([18]; Table 7, read-out: MIC in TSB): 1 µg/mL (≈ 3.2 µM); MIC ([20]; Table 1, read-out: MIC): 1 µg/mL (≈ 3.2 µM); MIC ([20]; Table 7, read-out: MIC in TSB): 1 µg/mL (≈ 3.2 µM); MIC ([21]; Table 1, read-out: MIC): 1 µg/mL (≈ 3.2 µM); MIC ([21]; Table 7, read-out: MIC in TSB): 1 µg/mL (≈ 3.2 µM); MIC ([22]; Table 1, read-out: MIC): 0.25 µg/mL (≈ 0.8 µM); MIC ([22]; Table 7, read-out: MIC in TSB): 0.25 µg/mL (≈ 0.8 µM); MIC [23]: 16 µg/mL (≈ 51.2 µM); MIC [24]: 8 µg/mL (≈ 25.6 µM); MIC [25]: 8 µg/mL (≈ 25.6 µM)
CC(=O)NC[C@H]1CN(c2ccc(N3CCOCC3)c(F)c2)C(=O)O1 [Linezolid, reference compound]	1 (≈ 2.96 µM)	≤ 0.5	1 (≈ 2.96 µM)	≤ 0.5	2 (≈ 5.93 µM)	2 (≈ 5.93 µM)	≤ 0.5	2 (≈ 5.93 µM)	4 (≈ 11.9 µM)	4 (≈ 11.9 µM)	4 (≈ 11.9 µM)	4 (≈ 11.9 µM)	4 (≈ 11.9 µM)	4 (≈ 11.9 µM)	1 (≈ 2.96 µM)	1 (≈ 2.96 µM)	1 (≈ 2.96 µM)	1 (≈ 2.96 µM)	1 (≈ 2.96 µM)	1 (≈ 2.96 µM)	MIC ([20]; Table 1, read-out: MIC): 1 µg/mL (≈ 2.96 µM); MIC ([20]; Table 7, read-out: MIC in TSB): 1 µg/mL (≈ 2.96 µM); MIC ([21]; Table 1, read-out: MIC): 1 µg/mL (≈ 2.96 µM); MIC ([21]; Table 7, read-out: MIC in TSB): 1 µg/mL (≈ 2.96 µM); MIC [23]: 8 µg/mL (≈ 23.7 µM); MIC [24]: 4 µg/mL (≈ 11.9 µM); MIC [25]: 4 µg/mL (≈ 11.9 µM)

From patent US12378211B2, “Carbonic anhydrase inhibitors and antibiotics against multidrug resistant bacteria” (Purdue Research Foundation, priority 2018, dated 2025)
